Reference: article PMC4608732, “Phosphorylation and Internalization of Lysophosphatidic Acid Receptors LPA1, LPA2, and LPA3” (PLoS ONE, 2015)
pEC50: −log10 of the molar value. Values belong to the molecule of their own block, whether it stands above or below them.

Key:
[1] = test system: ERK 1/2; assay: ERK 1/2 phosphorylation (Western blotting) in C9 cells overexpressing LPA1-3; format: cell-based, rat; settings: 5 min, cells overexpressing LPA1-3
Procedure: Cells were cultured to near confluence in 6 well plates and stimulated with the agents tested for the times indicated. Total cellular extracts were obtained by lysing the cells in Laemmli’s sample buffer containing 5% β-mercaptoethanol. The cell extracts were subject to 10% SDS-PAGE and transferred to nitrocellulose membranes. Membranes from samples obtained in parallel were incubated overnight at 4°C, with anti-pERK 1/2 (1:2000) or anti ERK 1/2 (1:2000). The membranes were washed and incubated for 1 h at room temperature with a horseradish peroxidase-conjugated secondary antibody (1:10,000) for enhanced chemiluminescence detection.

[2] = biological target: T1, LPA2 receptor (Homo sapiens, UniProt Q9HBW0); assay: Intracellular calcium concentration response to LPA, C9 cells overexpressing LPA2; format: cell-based
Procedure: (§1) C9 cells (Clone 9, rat hepatic epithelial cells, CRL-1439™), obtained directly from American Type Culture Collection, were cultured in Ham’s F12 Kaighn’s modification medium supplemented with 10% fetal bovine serum, 100 μg/ml streptomycin, 100 units/ml penicillin and 0.25 μg/ml amphotericin B at 37°C under a 95% air and 5% CO2 atmosphere, as described previously. The medium was replaced with one containing 1% fetal bovine serum, 12–16 h before the experiment. C9 cells stably expressing the mouse LPA1 receptor fused at the carboxyl termini with eGFP were those previously described. […] As depicted in”Fig A in S1 File”, expression of LPA1 and LPA2 receptors was similar (~80%) whereas that of LPA3 was consistently lower (~60%), as evidenced by fluorescence imaging and flow cytometry. Flow cytometry was performed using an Attune NxT Acoustic Focusing Cytometer, employing excitation of 488 nm; data were analyzed using the Attune cytometric software included with the equipment.
(§2) This procedure has been described previously. […] Determinations were carried in an AMINCO-Bowman Series 2 luminescence spectrometer, employing 340 and 380 nm excitation wavelengths and an emission wavelength of 510 nm; chopper interval was 0.5 sec. The intracellular calcium concentration was calculated as described by Grynkiewicz et al.. […]

[3] = biological target: T1, LPA2 receptor; assay: LPA2 receptor phosphorylation ([32P]Pi labeling, immunoprecipitation); format: cell-based
Procedure: (§3) The procedure was very similar to that previously described to study LPA1 receptor phosphorylation. In brief, cells were incubated in phosphate-free Dulbecco’s modified Eagle’s medium containing 100 μCi/ml [^32P]Pi for 3 h at 37°C. LPA1- and LPA2-expressing cells were cultured in 6 well plates, whereas those expressing LPA3 receptors were cultured in 10 cm dishes. Labeled cells were stimulated with the agents tested and then washed twice with ice-cold phosphate buffered saline and solubilized in buffer containing 10 mM Tris, 150 mM NaCl, 1% sodium cholate, 1% Nonident P40, protease and phosphatase inhibitors, pH 7.4 [11, 12, 14]. The lysates were incubated overnight with protein A-agarose and anti-GFP serum with constant agitation at 4°C. Samples were washed and the pellets containing the immunocomplexes were solubilized in Laemmli’s sample buffer containing 5% β-mercaptoethanol. Proteins were separated using 10% SDS-PAGE and electrotransferred onto polyvinyliden fluoride membranes. Receptor phosphorylation was analyzed with a Molecular Dynamics Typhoon PhosphorImager and the ImageJ software (http://rsb.info.nih.gov/ij/).

[4] = biological target: T1, LPA2 receptor; assay: LPA2 receptor internalization, confocal imaging; format: cell-based; settings: LPA2 cells
Procedure: (§4) Cells were seeded at approximately 30% confluence onto glass-bottomed Petri dishes and cultured for 3 h at 37°C in media containing 1% serum. After treatment, cells were washed three times with phosphate buffered saline and fixed with 4% paraformaldehyde in 0.1 M phosphate buffer for 20 min at room temperature; samples were then washed three additional times with phosphate buffered saline. The fluorescent images were acquired with an Olympus Fluoview FV10 confocal microscope with a water-immersion objective (60X). To determine receptor internalization, the plasma membrane was delineated utilizing the differential interference contrast imaging, and fluorescence in this region was quantified employing the ImageJ software. At least 5 or 6 images of different cultures were taken for each condition. Data were normalized as follows: for each experiment, fluorescence (arbitrary units) at the plasma membrane of baseline samples were pooled and the average was considered as 100%.

[5] = biological target: T2, LPA3 receptor (Homo sapiens, UniProt Q9UBY5); assay: LPA3 receptor phosphorylation ([32P]Pi labeling, immunoprecipitation); format: cell-based
T2 sequence (Q9UBY5 1-353): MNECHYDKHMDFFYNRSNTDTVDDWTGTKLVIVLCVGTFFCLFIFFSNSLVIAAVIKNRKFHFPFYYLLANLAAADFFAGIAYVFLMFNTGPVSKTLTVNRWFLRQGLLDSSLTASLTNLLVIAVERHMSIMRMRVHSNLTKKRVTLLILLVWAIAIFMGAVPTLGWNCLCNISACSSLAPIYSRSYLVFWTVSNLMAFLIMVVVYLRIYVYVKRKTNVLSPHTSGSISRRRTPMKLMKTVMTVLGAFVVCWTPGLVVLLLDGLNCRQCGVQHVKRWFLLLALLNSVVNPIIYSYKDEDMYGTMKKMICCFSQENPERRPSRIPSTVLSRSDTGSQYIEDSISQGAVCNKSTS

[6] = biological target: T3, LPA1 receptor (Mus musculus, UniProt P61793); assay: LPA1 receptor internalization, confocal imaging; format: cell-based; settings: LPA1 cells
T3 construct: expressed in transfected cells
Procedure: as §4

[7] = biological target: T1, LPA2 receptor; assay: Heterologous (PMA) / homologous (LPA) desensitization of LPA-induced calcium response, LPA2 cells; format: cell-based; settings: preincubation 10 min, washed, challenge 1 μM LPA, LPA2 cells
Procedure: (§5) This procedure has been described previously. Briefly, cells were loaded with 2.5 μM Fura-2 AM in Krebs–Ringer–Hepes containing 0.05% bovine serum albumin (pH 7.4) for 1 h at 37°C and then washed to eliminate unincorporated indicator. Determinations were carried in an AMINCO-Bowman Series 2 luminescence spectrometer, employing 340 and 380 nm excitation wavelengths and an emission wavelength of 510 nm; chopper interval was 0.5 sec. The intracellular calcium concentration was calculated as described by Grynkiewicz et al.. In the experiments where prolonged incubation was required (resensitization studies), cells were stimulated, washed, and the incubation was continued in the presence of Fura-2 AM, to avoid dye depletion.
(§6) Agonists-mediated decreases occurred in a concentration-dependent fashion, with a maximum at the concentration of ~ 100 nM. […] It is worth noticing that the shift in the curves was more pronounced in LPA1- or LPA3-expressing cells, than in those that expressed the LPA2 subtype.
(§7) Plotted are the increases in calcium as the percentage of that obtained in cells preincubated without any agent as mean ± S. E. M. of 6 experiments using different cell preparations.

[8] = biological target: T3, LPA1 receptor; assay: Heterologous (PMA) / homologous (LPA) desensitization of LPA-induced calcium response, LPA1 cells; format: cell-based; settings: preincubation 10 min, washed, challenge 1 μM LPA, LPA1 cells
Procedure: as §5, §6, §7

[9] = test system: wild-type C9 cells; assay: Intracellular calcium concentration response to LPA, wild type C9 cells; format: cell-based, rat
Procedure: as §1, §2

[10] = biological target: T3, LPA1 receptor; assay: Intracellular calcium concentration response to LPA, C9 cells overexpressing LPA1; format: cell-based
Procedure: as §1, §2

[11] = biological target: T2, LPA3 receptor; assay: Intracellular calcium concentration response to LPA, C9 cells overexpressing LPA3; format: cell-based; settings: cells over-expressing LPA3
[12] = biological target: T2, LPA3 receptor; assay: LPA3 receptor internalization, confocal imaging; format: cell-based; settings: LPA3 cells
Procedure: as §4

[13] = biological target: T2, LPA3 receptor; assay: Heterologous (PMA) / homologous (LPA) desensitization of LPA-induced calcium response, LPA3 cells; format: cell-based; settings: preincubation 10 min, washed, challenge 1 μM LPA, LPA3 cells
Procedure: as §5, §6, §7

[14] = biological target: T3, LPA1 receptor; assay: LPA1 receptor phosphorylation ([32P]Pi labeling, immunoprecipitation); format: cell-based
Procedure: as §3

[15] = 1 μM LPA 10 min, washed, incubated to 60 or 120 min

T1 sequence (Q9HBW0 whole entry, the tested form may be a part): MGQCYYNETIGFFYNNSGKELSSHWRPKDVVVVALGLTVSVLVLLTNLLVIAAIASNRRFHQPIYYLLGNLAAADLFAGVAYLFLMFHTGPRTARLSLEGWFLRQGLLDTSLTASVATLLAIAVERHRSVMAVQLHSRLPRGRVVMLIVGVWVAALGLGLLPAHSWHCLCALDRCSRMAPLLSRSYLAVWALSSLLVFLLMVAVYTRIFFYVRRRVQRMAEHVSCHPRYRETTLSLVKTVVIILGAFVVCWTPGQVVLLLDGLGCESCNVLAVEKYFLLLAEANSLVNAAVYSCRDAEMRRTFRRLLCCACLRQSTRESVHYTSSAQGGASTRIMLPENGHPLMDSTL
T3 sequence (P61793 whole entry): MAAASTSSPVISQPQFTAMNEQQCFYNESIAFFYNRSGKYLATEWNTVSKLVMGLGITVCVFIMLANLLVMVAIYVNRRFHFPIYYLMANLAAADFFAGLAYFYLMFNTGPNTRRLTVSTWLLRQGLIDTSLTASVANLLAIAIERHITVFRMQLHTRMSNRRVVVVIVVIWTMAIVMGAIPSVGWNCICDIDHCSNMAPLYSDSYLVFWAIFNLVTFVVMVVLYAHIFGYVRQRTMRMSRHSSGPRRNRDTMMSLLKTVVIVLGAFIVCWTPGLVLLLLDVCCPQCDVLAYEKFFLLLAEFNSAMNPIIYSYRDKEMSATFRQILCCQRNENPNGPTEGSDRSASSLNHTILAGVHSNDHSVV

Molecule: EGF: epidermal growth factor, obtained from Preprotech (NSDSECPLSHDGYCLHDGVCMYIEALDKYACNCVVGYIGERCQYRDLKWWELR; UniProt P01133 971-1023, looked up)
increase in ERK phosphorylation ([1]; 100 ng/ml EGF): ~ 4 fold

calcium response (increase of the cation's concentration) ([2]; cells over-expressing LPA2): 450 to 600 nM | time to maximum receptor phosphorylation ([3]; 1 μM agent, LPA2 cells): ≤ 15 min | concentration-response curve, receptor phosphorylation ([3]; 15 min incubation, LPA2-overexpressing cells, shift to higher concentrations): no clear saturation was obtained | recovery of fluorescence at the membrane level after washing [4, 15]: slowly | receptor internalization (decrease in fluorescence at the plasma membrane, compared with other subtypes) ([4]; 1 μM agent, 30 or 60 min): much less intense | time to maximum receptor phosphorylation ([5]; 1 μM agent, LPA3 cells): ≤ 15 min | concentration at which receptor phosphorylation saturates ([5]; 15 min incubation, LPA3-overexpressing cells): ~ 1 μM | recovery of fluorescence at the membrane level after washing [6, 15]: recovered rapidly and completely | pEC50 ([9]; read-out: EC50, increase in intracellular calcium concentration): 6.40 to 6.70 | pEC50 ([10]; LPA1-overexpressing cells, read-out: EC50, increase in intracellular calcium concentration): 6.40 to 6.70 | calcium response (increase of the cation's concentration) ([10]; cells over-expressing LPA1): 450 to 600 nM | calcium response (increase of the cation's concentration) [11]: ~ 300 nM | recovery of fluorescence at the membrane level after washing [12, 15]: only partially and also slowly | time to maximum receptor phosphorylation ([14]; 1 μM agent, LPA1 cells): ≤ 15 min | concentration at which receptor phosphorylation saturates ([14]; 15 min incubation, LPA1-overexpressing cells): ~ 1 μM | pEC50 ([14]; 15 min incubation, LPA1-overexpressing cells, read-out: EC50, receptor phosphorylation): 7.52 to 8.00
Molecule: CCCCCCCC/C=C\CCCCCCCC(=O)OC[C@@H](O)COP(=O)(O)O [LPA]
LPA concentration response curve, intracellular calcium ([2]; LPA2-overexpressing cells, curve shifted to the right): no clear saturation was achieved at the concentrations tested | increase in ERK phosphorylation ([1]; 1 μM LPA): ~ 2 fold | receptor internalization (fluorescence at the plasma membrane) ([6]; 1 μM agent, 30 or 60 min): markedly decreasing fluorescence at the plasma membrane level | concentration giving maximum homologous desensitization [7]: ~ 100 nM | concentration giving maximum homologous desensitization [8]: ~ 100 nM | maximal calcium concentration increase [9]: 150 to 200 nM | receptor internalization (fluorescence at the plasma membrane) ([12]; 1 μM agent, 30 or 60 min): markedly decreasing fluorescence at the plasma membrane level | concentration giving maximum homologous desensitization [13]: ~ 100 nM
